Assay results: publication PMC8586700 (Frontiers in Pharmacology, 2021)
Read-outs that look alike come from different tables or passages of the source.

Columns and labels:
[1] = Pharmacokinetic experiment, single intragastric administration, plasma by HPLC-UV; assay type: in vivo, SD rats; details: for AUC / Cmax / half-life / Tmax / concentration at 40 min / concentration at 60 min / concentration at 90 min / concentration at 150 min / concentration at 210 min: SD (Sprague-Dawley); for AUC / Cmax / half-life / Tmax / concentration at 40 min / concentration at 60 min / concentration at 90 min / concentration at 150 min / concentration at 210 min / concentration at 20 min / concentration at 270 min / concentration at 330 min: rat, plasma, po; for AUC / Cmax / half-life / Tmax: 200 mg/kg; for AUC: read-out: AUC(0-tn) of DHC (converted); for Cmax: read-out: Cmax of DHC; for half-life: read-out: T1/2 of DHC; for Tmax: read-out: Tmax of DHC (converted); for concentration at 40 min / concentration at 60 min / concentration at 90 min / concentration at 150 min / concentration at 210 min / concentration at 20 min / concentration at 270 min / concentration at 330 min: read-out: Mean concentrations ±sd, DHC; for concentration at 20 min / concentration at 270 min / concentration at 330 min: SD
Method: An Agilent 1200 HPLC system was used. […] The flow rate was set at 1 ml min^−1 and detection wavelength was 420, 340 and 323 nm. Injection volume was 5 μL. The column temperature was set at 30°C.
(§1) Plasma or brain homogenate of SD rats was taken 50 μL, internal standard solution of 50 μL and protein precipitator of 150 μL were added. After eddy oscillation for 3 min, supernatant was separated by centrifugation.
Blood samples were collected from tail vein at 20 min, 40 min, 1, 1.5, 2.5, 3.5, 4.5, and 5.5 h after intragastric administration.
(§2) Plasma was collected by centrifugation of blood at 3000 RPM for 10min, and stored at -80 °C. Brain tissue of SD rat was dissected, weighed and added with normal saline at a volume of 2 ml g^−1. After homogenating brain tissue for 3 min by a homogenizer at 14,000 RPM, the supernatant was collected after centrifugation at 12,000 RPM for 10 min.

[2] = Repeated administration, drug concentrations of plasma and brain; assay type: in vivo, SD rats; details: for Mean concentrations±sd, DHC in plasma after multiple doses: loading dose then half doses for four consecutive days
Method: as §1
The concentration of drugs in plasma and brain homogenate after repeated administration was determined according to the same grouping and administration method. The loading dose of 200 mg kg^−1 was given for the first time and half doses for four consecutive days.
as §2

[3] = Stability experiment in plasma and brain homogenate samples; assay type: in vitro ADME, SD rats
Method: Three blank samples of plasma and brain homogenate of SD rats were added into the mixed standard solution. The stability experiment included placing at room temperature for 12 h, repeatedly freeze-thaw for three times and frozen for 15 days.

[4] = Group A: CUR 200 mg kg^−1 oral alone
[5] = Group B: CUR 200 mg kg^−1 and PIP 150 mg kg^−1 oral
[6] = Group C: CUR 200 mg kg^−1 and ILE 150 mg kg^−1 oral
[7] = Group A (CUR 200 mg kg^−1 oral alone)
[8] = Group B (CUR 200 mg kg^−1 and PIP 150 mg kg^−1 oral)
[9] = Group C (CUR 200 mg kg^−1 and ILE 150 mg kg^−1 oral)
[10] = combined CUR and ILE compared with CUR alone
[11] = combined CUR and ILE compared with combined administration with PIP
[12] = combined CUR and PIP compared with single CUR administration

COc1cc(/C=C/C(=O)CC(=O)CCc2ccc(O)c(OC)c2)ccc1O [DHC, Dihydrocurcumin]
CL of DHC [1, 4]: 233.2 ± 7.8 mL/min
Vd of DHC [1, 4]: 9,087.6 ± 302.9 mL
CL of DHC [1, 5]: 70.0 ± 3.3 mL/min
Vd of DHC [1, 5]: 2,802.6 ± 133.4 mL
CL of DHC [1, 6]: 52.7 ± 2.3 mL/min
Vd of DHC [1, 6]: 3,751.4 ± 165.6 mL
AUC [1, 4]: 7610 ng·h/mL
Cmax [1, 4]: 6100 ± 3200 ng/mL
half-life [1, 4]: 24.8 ± 9.3 min
Tmax [1, 4]: 26 min
AUC [1, 5]: 7060 ng·h/mL
Cmax [1, 5]: 7500 ± 1100 ng/mL
half-life [1, 5]: 25.4 ± 6.3 min
Tmax [1, 5]: 22 min
AUC [1, 6]: 16800 ng·h/mL
Cmax [1, 6]: 9200 ± 2400 ng/mL
half-life [1, 6]: 114 ± 31.2 min
Tmax [1, 6]: 18 min
concentration at 40 min [1, 7]: 3500 ± 900 ng/mL
concentration at 60 min [1, 7]: 1800 ± 500 ng/mL
concentration at 90 min [1, 7]: 1400 ± 500 ng/mL
concentration at 150 min [1, 7]: 1200 ± 700 ng/mL
concentration at 210 min [1, 7]: 1100 ± 300 ng/mL
concentration at 40 min [1, 8]: 4000 ± 600 ng/mL
concentration at 60 min [1, 8]: 2600 ± 500 ng/mL
concentration at 90 min [1, 8]: 2000 ± 400 ng/mL
concentration at 150 min [1, 8]: 1000 ± 300 ng/mL
concentration at 210 min [1, 8]: 600 ± 200 ng/mL
concentration at 40 min [1, 9]: 6300 ± 700 ng/mL
concentration at 60 min [1, 9]: 4800 ± 700 ng/mL
concentration at 90 min [1, 9]: 4000 ± 1200 ng/mL
concentration at 150 min [1, 9]: 3800 ± 700 ng/mL
concentration at 210 min [1, 9]: 2600 ± 100 ng/mL
concentration at 20 min [1, 7]: 6100 ± 3200 ng/mL
concentration at 270 min [1, 7]: 900 ± 400 ng/mL
concentration at 330 min [1, 7]: 800 ± 400 ng/mL
concentration at 20 min [1, 8]: 7500 ± 1100 ng/mL
concentration at 270 min [1, 8]: 250 ± 30 ng/mL
concentration at 330 min [1, 8]: 150 ± 30 ng/mL
concentration at 20 min [1, 9]: 9200 ± 2400 ng/mL
concentration at 270 min [1, 9]: 1400 ± 700 ng/mL
concentration at 330 min [1, 9]: 600 ± 200 ng/mL
AUC(0-tn) of DHC increased by [1, 10]: 1.2 times
CL of DHC reduced by [1, 10]: 77.4%
Cmax of DHC increased by [1, 10]: 50.8%
T1/2 of DHC increased by [1, 10]: 3.6 times
Tmax of DHC decreased by [1, 10]: 30.8%
Vd of DHC reduced by [1, 10]: 58.6%
Vd of DHC increased by ([1]; combined CUR and ILE compared with CUR and PIP combined): 34%
CL of DHC reduced by ([1]; combined CUR and ILE compared with CUR combined with PIP): 24.6%
AUC(0-tn) of DHC increased by [1, 11]: 1.4 times
Cmax of DHC increased by [1, 11]: 22.7%
T1/2 of DHC increased by [1, 11]: 3.5 times
Tmax of DHC decreased by [1, 11]: 18.2%
AUC(0-tn) of DHC decreased by [1, 12]: 7.2%
CL of DHC decreased by [1, 12]: 70%
Cmax of DHC increased by [1, 12]: 23%
Tmax of DHC decreased by [1, 12]: 15.4%
Vd of DHC decreased by [1, 12]: 69.2%
Mean concentrations±sd, DHC in plasma after multiple doses ([2]; Group I: CUR): 1400 ± 600 ng/mL
Mean concentrations±sd, DHC in plasma after multiple doses ([2]; Group II: CUR and PIP): 4600 ± 1800 ng/mL
Mean concentrations±sd, DHC in plasma after multiple doses ([2]; Group III: CUR and ILE): 8700 ± 2500 ng/mL
Detection in brain tissue ([2]; after repeated administration): could not be detected
Recoveries after repeated freezing-thawing for three times ([3]; plasma): over 100%
Recoveries after being kept at room temperature for 12 h ([3]; plasma samples): less than 30%
